Reference: ChEMBL document CHEMBL1201862, “PubChem BioAssay data set” (2004)
Activity calls are given as the source filed them.

Tests used:
cells [1] = format: functional, cell-based
cells [2] = format: functional, cell-based; remark: listed apart in the source
[3] = target: T1, Polyadenylate-binding protein 1 (Homo sapiens, UniProt P11940); test: PABP1 MLLE–PAM2 interaction inhibitors, dose response, miRNA deadenylation inhibitor project, biochemical, fluorescence polarization, Cy5-PAM2 peptide, secondary (AID 602260); format: functional; details: read-out: IC50_Mean
T1 sequence (P11940 whole entry): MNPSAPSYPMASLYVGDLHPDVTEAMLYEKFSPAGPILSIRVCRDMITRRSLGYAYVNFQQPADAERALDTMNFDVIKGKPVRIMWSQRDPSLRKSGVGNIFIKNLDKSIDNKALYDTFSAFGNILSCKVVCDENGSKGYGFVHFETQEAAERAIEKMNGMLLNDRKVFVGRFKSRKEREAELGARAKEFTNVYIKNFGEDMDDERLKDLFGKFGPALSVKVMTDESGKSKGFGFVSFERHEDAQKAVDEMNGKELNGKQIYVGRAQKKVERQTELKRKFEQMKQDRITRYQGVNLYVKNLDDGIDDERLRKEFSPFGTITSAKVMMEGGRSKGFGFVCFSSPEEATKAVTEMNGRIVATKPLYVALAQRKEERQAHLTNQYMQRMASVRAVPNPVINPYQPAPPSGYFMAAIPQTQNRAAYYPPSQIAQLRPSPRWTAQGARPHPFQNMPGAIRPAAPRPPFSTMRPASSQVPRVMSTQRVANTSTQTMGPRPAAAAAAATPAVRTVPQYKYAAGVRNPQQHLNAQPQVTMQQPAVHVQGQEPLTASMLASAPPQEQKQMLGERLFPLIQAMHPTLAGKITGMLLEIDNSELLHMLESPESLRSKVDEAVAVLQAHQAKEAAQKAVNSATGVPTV

[4] = target: T1, Polyadenylate-binding protein 1; test: PABP1 MLLE–PAM2 binding inhibitor potency, dose response, biochemical, fluorescence polarization, FITC-PAM2 peptide (AID 602259); format: functional; details: read-out: IC50_Mean
[5] = target: T2, Corticotropin-releasing factor receptor 2/Corticotropin-releasing factor-binding protein (Homo sapiens, UniProt P24387+Q13324); test: Dose Response confirmation of uHTS hits for small molecule antagonists of the CRF-binding protein and CRF-R2 receptor complex.; format: functional; details: read-out: IC50_Mean
T2 sequence (Q13324 whole entry): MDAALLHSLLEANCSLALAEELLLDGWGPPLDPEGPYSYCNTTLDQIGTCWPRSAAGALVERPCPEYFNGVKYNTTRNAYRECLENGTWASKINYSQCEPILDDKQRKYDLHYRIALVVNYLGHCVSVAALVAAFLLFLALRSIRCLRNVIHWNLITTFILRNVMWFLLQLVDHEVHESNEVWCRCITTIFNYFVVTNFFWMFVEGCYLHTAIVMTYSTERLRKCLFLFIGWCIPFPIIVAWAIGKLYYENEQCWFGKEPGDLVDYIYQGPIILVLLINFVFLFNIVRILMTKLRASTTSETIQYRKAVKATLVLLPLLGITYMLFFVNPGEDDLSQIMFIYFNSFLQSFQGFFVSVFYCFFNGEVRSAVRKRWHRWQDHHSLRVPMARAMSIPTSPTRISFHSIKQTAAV
T2 sequence (P24387 whole entry): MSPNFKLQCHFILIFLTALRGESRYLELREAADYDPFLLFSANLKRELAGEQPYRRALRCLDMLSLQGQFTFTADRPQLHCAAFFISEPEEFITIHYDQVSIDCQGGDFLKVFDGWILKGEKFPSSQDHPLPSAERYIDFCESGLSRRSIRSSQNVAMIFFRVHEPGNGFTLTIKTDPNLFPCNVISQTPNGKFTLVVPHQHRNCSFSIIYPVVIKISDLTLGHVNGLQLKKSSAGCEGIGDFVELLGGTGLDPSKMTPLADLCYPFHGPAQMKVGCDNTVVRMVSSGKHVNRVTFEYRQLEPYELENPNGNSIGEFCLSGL

[6] = target: T2, Corticotropin-releasing factor receptor 2/Corticotropin-releasing factor-binding protein; test: activators of CRF receptor 2 with binding protein – uHTS hits, confirmation (AID 602473); format: functional; details: read-out: EC50_Mean
[7] = Shn3 3'UTR reporter inhibitors, dose response, cell-based, Clone20 osteoblasts, firefly luciferase, cherry-picked (AID 624132); format: functional;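 note: firefly luciferase luminescence from reporter carrying the Shn3 3'UTR in osteoblasts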
[8] = HepG2 cell cytotoxicity, dose response, cytotoxicity control for Shn3 inhibitor project, CellTiter-Glo, cherry-picked (AID 624134); format: functional, cell-based
[9] = control 3'UTR Renilla luciferase suppression, dose response, counter-screen for Shn3 inhibitor project, cell-based, Clone20-Shn3RL, cherry-picked (AID 624133); format: functional
[10] = Luminescence Cell-Based Dose Confirmation HTS to Identify Activators of 5'UTR Stem-Loop Driven Alpha-Synuclein mRNA Translation in H4 Neuroglioblastoma Cells. [Related pubchem assays: 1829 (Project Summary), 1814 (Primary HTS)]; format: functional
[11] = Luminescence Cell-Based Dose Response HTS to Identify Activators of Luciferase Translation or Activity in H4 […] Cells. [Related pubchem assays: 1829 (Project Summary), 1814 (Primary HTS)]; format: functional
H4 = test: Luminescence Cell-Based Dose Response HTS to Identify Activators of 5'UTR Stem-Loop Driven Prion Protein mRNA Translation in H4 Neuroglioblastoma Cells. [Related pubchem assays: 1829 (Project Summary), 1814 (Primary HTS)]; format: functional; details: Homo sapiens
[12] = target: Induced myeloid leukemia cell differentiation protein Mcl-1 (Homo sapiens, UniProt Q07820); format: functional
Sequence of Induced myeloid leukemia cell differentiation protein Mcl-1 (Q07820 whole entry, the tested form may be a part): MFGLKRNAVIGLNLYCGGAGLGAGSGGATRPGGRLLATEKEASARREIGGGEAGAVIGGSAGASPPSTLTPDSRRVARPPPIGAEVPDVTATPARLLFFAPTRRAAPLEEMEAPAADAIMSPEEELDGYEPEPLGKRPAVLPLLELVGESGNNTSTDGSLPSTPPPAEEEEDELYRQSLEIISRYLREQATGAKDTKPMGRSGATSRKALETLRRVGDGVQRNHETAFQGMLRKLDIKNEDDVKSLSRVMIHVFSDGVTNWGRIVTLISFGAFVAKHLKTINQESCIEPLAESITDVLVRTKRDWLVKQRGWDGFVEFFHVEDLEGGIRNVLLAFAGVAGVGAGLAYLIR

Fatty acid synthase [13] = target: T3, Fatty acid synthase (Homo sapiens, UniProt P49327); test: FAS thioesterase domain inhibitors, dose response, biochemical, endpoint fluorescence intensity, uHTS hits (AID 624327); format: functional;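 note: fluorescence from hydrolysis of an O-methyl fluorescein acyl ester substrate by the enzyme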
T3 sequence (P49327 whole entry, the tested form may be a part): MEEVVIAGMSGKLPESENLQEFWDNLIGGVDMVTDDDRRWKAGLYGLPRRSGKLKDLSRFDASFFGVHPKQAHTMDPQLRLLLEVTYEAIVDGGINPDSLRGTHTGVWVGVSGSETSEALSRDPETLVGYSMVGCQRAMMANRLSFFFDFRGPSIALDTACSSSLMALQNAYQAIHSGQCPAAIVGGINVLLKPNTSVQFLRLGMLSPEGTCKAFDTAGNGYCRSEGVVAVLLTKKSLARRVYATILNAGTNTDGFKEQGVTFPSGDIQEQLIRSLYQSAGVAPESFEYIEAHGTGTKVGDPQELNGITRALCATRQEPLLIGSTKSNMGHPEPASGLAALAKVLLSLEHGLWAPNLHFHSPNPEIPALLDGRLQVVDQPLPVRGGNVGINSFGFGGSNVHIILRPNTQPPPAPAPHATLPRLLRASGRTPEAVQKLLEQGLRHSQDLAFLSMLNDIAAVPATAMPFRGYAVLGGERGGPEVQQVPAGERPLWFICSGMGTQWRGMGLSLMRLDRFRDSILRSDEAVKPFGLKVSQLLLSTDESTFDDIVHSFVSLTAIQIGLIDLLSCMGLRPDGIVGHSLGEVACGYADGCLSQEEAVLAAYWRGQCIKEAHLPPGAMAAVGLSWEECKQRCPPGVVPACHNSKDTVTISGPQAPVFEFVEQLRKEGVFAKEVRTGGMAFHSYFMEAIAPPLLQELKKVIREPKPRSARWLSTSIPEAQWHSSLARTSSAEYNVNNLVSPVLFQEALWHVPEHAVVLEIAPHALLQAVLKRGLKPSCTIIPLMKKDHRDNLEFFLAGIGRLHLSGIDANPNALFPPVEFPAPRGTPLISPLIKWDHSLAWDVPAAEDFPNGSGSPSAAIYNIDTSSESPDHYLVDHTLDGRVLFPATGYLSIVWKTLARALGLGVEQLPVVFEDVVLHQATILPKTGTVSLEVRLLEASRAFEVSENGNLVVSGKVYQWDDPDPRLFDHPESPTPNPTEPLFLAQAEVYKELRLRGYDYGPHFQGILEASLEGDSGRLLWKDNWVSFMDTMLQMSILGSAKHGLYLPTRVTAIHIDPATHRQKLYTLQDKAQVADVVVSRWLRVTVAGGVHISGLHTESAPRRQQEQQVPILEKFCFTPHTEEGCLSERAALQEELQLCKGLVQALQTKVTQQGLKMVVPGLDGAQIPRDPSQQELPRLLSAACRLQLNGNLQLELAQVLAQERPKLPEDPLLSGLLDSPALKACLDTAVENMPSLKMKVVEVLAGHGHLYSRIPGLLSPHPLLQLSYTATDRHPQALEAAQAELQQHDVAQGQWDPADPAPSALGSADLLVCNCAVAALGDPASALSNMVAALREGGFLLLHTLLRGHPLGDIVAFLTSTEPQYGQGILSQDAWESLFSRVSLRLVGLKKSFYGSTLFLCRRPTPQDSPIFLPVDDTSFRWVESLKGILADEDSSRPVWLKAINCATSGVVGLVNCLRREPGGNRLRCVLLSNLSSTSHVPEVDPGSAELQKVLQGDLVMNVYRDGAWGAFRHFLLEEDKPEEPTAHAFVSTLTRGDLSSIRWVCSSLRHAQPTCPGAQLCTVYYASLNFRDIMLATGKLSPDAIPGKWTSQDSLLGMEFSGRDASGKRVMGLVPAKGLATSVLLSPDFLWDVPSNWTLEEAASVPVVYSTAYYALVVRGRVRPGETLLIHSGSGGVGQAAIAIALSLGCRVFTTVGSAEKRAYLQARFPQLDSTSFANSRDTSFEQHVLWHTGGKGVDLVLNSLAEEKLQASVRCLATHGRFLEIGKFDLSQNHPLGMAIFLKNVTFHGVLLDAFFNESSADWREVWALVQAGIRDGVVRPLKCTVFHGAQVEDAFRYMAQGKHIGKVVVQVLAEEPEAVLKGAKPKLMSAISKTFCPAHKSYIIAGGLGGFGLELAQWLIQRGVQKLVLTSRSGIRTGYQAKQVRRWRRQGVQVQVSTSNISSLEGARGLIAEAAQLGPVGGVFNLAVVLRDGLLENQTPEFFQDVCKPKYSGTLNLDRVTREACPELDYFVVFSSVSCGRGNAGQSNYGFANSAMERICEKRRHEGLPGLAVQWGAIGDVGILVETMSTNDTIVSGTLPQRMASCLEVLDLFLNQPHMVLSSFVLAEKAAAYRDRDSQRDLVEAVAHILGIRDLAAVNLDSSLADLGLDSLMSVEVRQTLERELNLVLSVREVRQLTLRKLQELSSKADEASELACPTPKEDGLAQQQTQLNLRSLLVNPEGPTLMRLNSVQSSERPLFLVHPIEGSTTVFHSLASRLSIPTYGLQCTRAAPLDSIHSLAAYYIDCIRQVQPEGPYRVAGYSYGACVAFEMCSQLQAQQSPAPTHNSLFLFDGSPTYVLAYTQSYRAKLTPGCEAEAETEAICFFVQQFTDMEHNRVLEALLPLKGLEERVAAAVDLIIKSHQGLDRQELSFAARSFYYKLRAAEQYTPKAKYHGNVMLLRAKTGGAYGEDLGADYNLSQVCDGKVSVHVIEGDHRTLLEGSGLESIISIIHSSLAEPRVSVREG

Fatty acid synthase [14] = target: T3, Fatty acid synthase; test: FAS thioesterase domain inhibitors, dose response, biochemical, kinetic fluorescence intensity (AID 624326); format: functional;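 note: rate of fluorescence rise from hydrolysis of a fluorogenic O-methyl fluorescein ester substrate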
Protein skinhead-1 = target: T4, Protein skinhead-1 (Caenorhabditis elegans, UniProt P34707); format: functional
T4 sequence (P34707 whole entry): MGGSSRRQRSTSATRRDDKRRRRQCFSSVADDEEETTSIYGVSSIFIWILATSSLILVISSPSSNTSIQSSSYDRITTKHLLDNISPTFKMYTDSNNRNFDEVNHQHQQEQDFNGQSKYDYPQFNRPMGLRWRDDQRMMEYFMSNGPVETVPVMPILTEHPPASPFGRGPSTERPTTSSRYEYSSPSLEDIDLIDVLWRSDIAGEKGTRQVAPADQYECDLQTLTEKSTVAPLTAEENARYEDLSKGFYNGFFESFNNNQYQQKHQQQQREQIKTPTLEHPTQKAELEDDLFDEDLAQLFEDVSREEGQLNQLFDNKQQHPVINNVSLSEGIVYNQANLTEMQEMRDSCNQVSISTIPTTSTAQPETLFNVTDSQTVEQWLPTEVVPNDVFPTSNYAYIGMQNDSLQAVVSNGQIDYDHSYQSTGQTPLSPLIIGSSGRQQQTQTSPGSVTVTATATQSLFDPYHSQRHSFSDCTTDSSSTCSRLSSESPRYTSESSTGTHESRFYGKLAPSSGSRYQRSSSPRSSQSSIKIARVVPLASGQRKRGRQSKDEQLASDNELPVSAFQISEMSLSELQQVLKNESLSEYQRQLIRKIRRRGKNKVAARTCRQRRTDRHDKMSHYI

[15] = inhibitors of HIV Env-driven cell fusion, dose response, cherry-pick (AID 652057); format: functional, cell-based
[16] = ZM109 Env clade C HIV-1 fusion inhibitors, dose response, HeLa effector, CEM target cells, luciferase, cherry-pick (AID 652058); format: functional, cell-based
[17] = off-target signal loss in HeLa-CEM21 co-culture – HeLa F-luc CTL cells, cherry-picked, counter-screen for HIV-1 Env fusion inhibitor project, dose response (AID 652040); format: functional, cell-based;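 note: potency for signal decrease marking cytotoxic or nonspecific inhibition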
[18] = inhibitors of clade B AD8 Env fusion, dose response, cell-based, cherry-pick (AID 652062); format: functional;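 note: luciferase signal from cell-cell fusion driven by HIV-1 clade B AD8 Env; potency is for inhibitors of fusion seen as a drop in luminescence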
[19] = target: FAD-linked sulfhydryl oxidase ALR (Homo sapiens, UniProt P55789); test: inhibitors of human ALR sulfhydryl oxidase, dose response, biochemical, H2O2 detection, luminescence, cherry-pick (AID 493248)
Sequence of FAD-linked sulfhydryl oxidase ALR (P55789 whole entry): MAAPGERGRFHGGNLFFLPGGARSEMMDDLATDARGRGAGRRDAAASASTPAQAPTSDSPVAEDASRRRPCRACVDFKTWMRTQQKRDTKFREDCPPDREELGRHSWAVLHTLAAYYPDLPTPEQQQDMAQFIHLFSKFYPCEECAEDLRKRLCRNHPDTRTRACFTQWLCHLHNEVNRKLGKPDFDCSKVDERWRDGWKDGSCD

With `CCOP(=O)(C#CC(C)(C)C)C1(O)CCCCC1` (configuration not stated) the EC50 (cells [1]) was > 350 µM (not active) and the EC50 (cells [2]) was > 350 µM (not active).

With `CCOC(=O)c1sc(NC(=S)NC(=O)c2ccco2)nc1C` the IC50 [3] was > 66 µM (inactive) and the IC50 [4] was > 66 µM (inactive).

With `COc1cc2nc(SCc3c(C)noc3C)n(CCC3=CCCCC3)c(=O)c2cc1OC` the IC50 [5] was > 47.1 µM (inactive) and the EC50 [6] was > 53 µM (inactive).

In the case of `Cc1ccc(NC(S)=Nc2ccc(F)cc2)cc1`, the IC50 [3] is reported as > 66 µM (inactive) and the IC50 [4] is reported as > 66 µM (inactive).

For `CCN(CC)S(=O)(=O)c1ccc(-c2ccc(S(=O)(=O)N(CC)CC)cc2)cc1`, the AC50 [7] was 3.81 µM (active), the AC50 [8] was 6.43 µM (active) and the AC50 [9] was 3.13 µM (active).

For `CC(C)(C)C1=CC=C(C(C)(C)C)C(=O)C1=O`, the EC50 [10] was > 120 µM (not active), the EC50 [11] was > 120 µM (not active) and the EC50 (H4) was > 120 µM (not active). For the same molecule, the IC50 [12] was 3.86 µM (active).

In the case of `Cc1cccnc1NC(=S)NC(=O)c1oc2ccccc2c1C`, the IC50 [3] is reported as > 66 µM (inactive) and the IC50 [4] is reported as > 66 µM (inactive).

In the case of `O=C1[C@H]2[C@@H](c3ccc(F)cc3)N3C(=O)N(c4ccccc4)C(=O)[C@@]3(Cc3ccccc3)[C@H]2C(=O)N1C1CCCCC1`, the AC50 [7] is reported as > 70 µM (inactive), the AC50 [8] is reported as 64.9 µM (active) and the AC50 [9] is reported as 31.3 µM (active). For the same molecule, the IC50 (Fatty acid synthase [13]) was 17.5 µM (active) and the IC50 (Fatty acid synthase [14]) was 11 µM (active).

In the case of `O=C(Nc1ccc2snnc2c1)N1CCSCC1`, the IC50 (Protein skinhead-1) is reported as > 100 µM (inactive).

In the case of `CC[C@@]12C(=O)N(c3ccc(OC)cc3)C(=O)N1[C@H](c1ccc(Cl)cc1)[C@@H]1C(=O)N(C3CCCCC3)C(=O)[C@@H]12`, the AC50 [15] is reported as < 0.26 µM (active), the AC50 [16] is reported as 0.379 µM (active) and the AC50 [17] is reported as 0.407 µM (active). For the same molecule, the AC50 [18] was 0.607 µM (active).

With `COC(=O)C(CC(=O)Nc1cc(C)ccc1C)Nc1ccccc1OC` (configuration not stated) the AC50 [19] was 13.1 µM (active), the IC50 [5] was > 47.1 µM (inactive) and the EC50 [6] was > 53 µM (inactive).

For `CC(=O)N1c2ccc(S(=O)(=O)N3CCC(C(=O)Nc4cccc(F)c4)CC3)cc2CC1C` (configuration not stated), the AC50 [7] was 4.54 µM (active), the AC50 [8] was 48.7 µM (active) and the AC50 [9] was 12 µM (active).

For `COc1cc(C(=O)NCCc2nc3ccccc3n2C)cc(OC)c1OC`, the EC50 (cells [1]) was > 350 µM (not active) and the EC50 (cells [2]) was > 350 µM (not active).

In the case of `CCn1c(SCC(=O)Nc2nncs2)nnc1-c1ccco1`, the EC50 (cells [1]) is reported as > 350 µM (not active) and the EC50 (cells [2]) is reported as > 350 µM (not active).
